Assay results as given in BindingDB's records for doi:10.1016/j.bmcl.2010.11.060 (Msd, 2010).

Assay: Inhibition of MCP1-mediated human THP cell migration

| IC50 [µM] | SMILES |
| --- | --- |
| 6.92 | O=c1[nH]ccc2c(S(=O)(=O)N3CCCNCC3)cccc12 |
| 6.92 | O=S(=O)(c1cccc2cnccc12)N1CCCNCC1 [AT877] |
| 2.63 | C[C@@H](N)[C@H]1CC[C@H](C(=O)Nc2ccncc2)CC1 [4-[(1R)-1-aminoethyl]-N-(pyridin-4-yl)cyclohexane-1-carboxamide] |

| SMILES | IC50 [µM] |
| --- | --- |
| Nc1nccc2cc(CNCCc3ccccc3)ccc12 | > 31.6 |
